We go through 25 molecules from BindingDB's records for doi:10.1021/jm020429w (Rensselaer Polytechnic Institute, 2003).

This test can be described thus: Binding affinity towards Opioid receptor delta 1 from guinea pig brain using [3H]naltrindole as radioligand.
A word on the Ki: it is a measure of affinity in units of concentration, obtained from inhibition or displacement. Low readings indicate a stronger hold on the target, high ones a looser hold on the target. Take `C[C@H]1[C@H]2Cc3ccc(O)cc3[C@@]1(C)CCN2C[C@@H]1CCCO1`: the affinity corresponds to a Ki of 2.5 nM.

`C[C@@H]1[C@@H]2Cc3ccc(N)cc3[C@]1(C)CCN2CC1CC1` [3-Cyclopropylmethyl-6,11-dimethyl-1,2,3,4,5,6-hexahydro-2,6-methano-benzo[d]azocin-8-ylamine] had a Ki of 920 nM. Molecule `CC[C@@]12CCN(CC3CC3)C(C(=O)c3ccc(Nc4ccccc4)cc31)[C@@H]2C` [3-Cyclopropylmethyl-6-ethyl-11-methyl-8-phenylamino-3,4,5,6-tetrahydro-2H-2,6-methano-benzo[d]azocin-1-one] came in with a Ki of 37 nM. As for `C[C@H]1C2C(=O)c3ccc(O)cc3[C@@]1(C)CCN2CC1CC1` [3-Cyclopropylmethyl-8-hydroxy-6,11-dimethyl-3,4,5,6-tetrahydro-2H-2,6-methano-benzo[d]azocin-1-one], the figure is 20 nM; as for `C[C@H]1[C@H]2Cc3ccc(N)cc3[C@@]1(C)CCN2C[C@@H]1CCCO1` [6,11-Dimethyl-3-(tetrahydro-furan-2-ylmethyl)-1,2,3,4,5,6-hexahydro-2,6-methano-benzo[d]azocin-8-ylamine], 370 nM. For `C[C@H]1C2C(=O)c3ccc(N)cc3[C@@]1(C)CCN2CC1CC1` [8-Amino-3-cyclopropylmethyl-6,11-dimethyl-3,4,5,6-tetrahydro-2H-2,6-methano-benzo[d]azocin-1-one], the affinity corresponds to a Ki of 29 nM.

For the molecule `CC[C@@]12CCN(CC3CC3)C(C(=O)c3ccc(N)cc31)[C@@H]2C` [8-Amino-3-cyclopropylmethyl-6-ethyl-11-methyl-3,4,5,6-tetrahydro-2H-2,6-methano-benzo[d]azocin-1-one], the affinity, expressed as Ki, was 81 nM. As for `C[C@H]1C2Cc3cc4c(cc3[C@@]1(C)CCN2CC1CC1)[nH]c1ccccc14` [17-cyclopropylmethyl-1,20-dimethyl-(1S,20R)-5,17-diazapentacyclo[14.3.1.02,14.04,12.06,11]icosa-2(14),3,6(11),7,9,12-hexaene], the figure is 170 nM; as for `COc1ccccc1Nc1ccc2c(c1)[C@@]1(C)CCN(CC3CC3)C(C2)[C@@H]1C` [(3-Cyclopropylmethyl-6,11-dimethyl-1,2,3,4,5,6-hexahydro-2,6-methano-benzo[d]azocin-8-yl)-(2-methoxy-phenyl)-amine], 98 nM; as for `C[C@H]1C2Cc3ccc(Nc4ccc(Cl)c(Cl)c4)cc3[C@@]1(C)CCN2CC1CC1` [(3-Cyclopropylmethyl-6,11-dimethyl-1,2,3,4,5,6-hexahydro-2,6-methano-benzo[d]azocin-8-yl)-(3,4-dichloro-phenyl)-amine], 29 nM. In turn, `COc1cccc(Nc2ccc3c(c2)[C@@]2(C)CCN(CC4CC4)C(C3)[C@@H]2C)c1` [(3-Cyclopropylmethyl-6,11-dimethyl-1,2,3,4,5,6-hexahydro-2,6-methano-benzo[d]azocin-8-yl)-(3-methoxy-phenyl)-amine] registered an inhibitory constant (Ki) of 13 nM. For `COc1ccc(CNc2ccc3c(c2)[C@@]2(C)CCN(CC4CC4)C(C3)[C@@H]2C)cc1` [(3-Cyclopropylmethyl-6,11-dimethyl-1,2,3,4,5,6-hexahydro-2,6-methano-benzo[d]azocin-8-yl)-(4-methoxy-benzyl)-amine] the value was 80 nM; for `COc1ccc(Nc2ccc3c(c2)[C@@]2(C)CCN(CC4CC4)C(C3)[C@@H]2C)cc1` [(3-Cyclopropylmethyl-6,11-dimethyl-1,2,3,4,5,6-hexahydro-2,6-methano-benzo[d]azocin-8-yl)-(4-methoxy-phenyl)-amine], 8.3 nM; for `C[C@H]1C2Cc3ccc(Nc4ccc(C(F)(F)F)cc4)cc3[C@@]1(C)CCN2CC1CC1` [(3-Cyclopropylmethyl-6,11-dimethyl-1,2,3,4,5,6-hexahydro-2,6-methano-benzo[d]azocin-8-yl)-(4-trifluoromethyl-phenyl)-amine], 180 nM. For `Cc1ccc(Nc2ccc3c(c2)[C@@]2(C)CCN(CC4CC4)C(C3)[C@@H]2C)cc1` [(3-Cyclopropylmethyl-6,11-dimethyl-1,2,3,4,5,6-hexahydro-2,6-methano-benzo[d]azocin-8-yl)-p-tolyl-amine] the value was 6.2 nM. As for `C[C@H]1C2Cc3ccc(Nc4ccccn4)cc3[C@@]1(C)CCN2CC1CC1` [(3-Cyclopropylmethyl-6,11-dimethyl-1,2,3,4,5,6-hexahydro-2,6-methano-benzo[d]azocin-8-yl)-pyridin-2-yl-amine], the figure is 11 nM; as for `C[C@H]1C2Cc3ccc(Nc4cccnc4)cc3[C@@]1(C)CCN2CC1CC1` [(3-Cyclopropylmethyl-6,11-dimethyl-1,2,3,4,5,6-hexahydro-2,6-methano-benzo[d]azocin-8-yl)-pyridin-3-yl-amine], 21 nM; as for `C[C@H]1C2Cc3ccc(Nc4ccncc4)cc3[C@@]1(C)CCN2CC1CC1` [(3-Cyclopropylmethyl-6,11-dimethyl-1,2,3,4,5,6-hexahydro-2,6-methano-benzo[d]azocin-8-yl)-pyridin-4-yl-amine], 240 nM.

Take `C[C@H]1C2Cc3ccc(NCc4ccc(Cl)cc4)cc3[C@@]1(C)CCN2CC1CC1` [(4-Chloro-benzyl)-(3-cyclopropylmethyl-6,11-dimethyl-1,2,3,4,5,6-hexahydro-2,6-methano-benzo[d]azocin-8-yl)-amine]: the Ki is 100 nM. For `C[C@H]1C2Cc3ccc(Nc4ccc(Cl)cc4)cc3[C@@]1(C)CCN2CC1CC1` [(4-Chloro-phenyl)-(3-cyclopropylmethyl-6,11-dimethyl-1,2,3,4,5,6-hexahydro-2,6-methano-benzo[d]azocin-8-yl)-amine] the value was 26 nM. As for `C[C@H]1C2Cc3ccc(Nc4ccc(C(C)(C)C)cc4)cc3[C@@]1(C)CCN2CC1CC1` [(4-tert-Butyl-phenyl)-(3-cyclopropylmethyl-6,11-dimethyl-1,2,3,4,5,6-hexahydro-2,6-methano-benzo[d]azocin-8-yl)-amine], the figure is 61 nM. As for `C[C@H]1C2Cc3ccc(N(C)C)cc3[C@@]1(C)CCN2CC1CC1` [((6S,11R)-3-Cyclopropylmethyl-6,11-dimethyl-1,2,3,4,5,6-hexahydro-2,6-methano-benzo[d]azocin-8-yl)-dimethyl-amine], the figure is 810 nM; as for `C[C@H]1C2Cc3ccc(N=C(c4ccccc4)c4ccccc4)cc3[C@@]1(C)CCN2CC1CC1` [Benzhydrylidene-(3-cyclopropylmethyl-6,11-dimethyl-1,2,3,4,5,6-hexahydro-2,6-methano-benzo[d]azocin-8-yl)-amine], 220 nM; as for `C[C@H]1C2Cc3ccc(Nc4ccc(N(C)C)cc4)cc3[C@@]1(C)CCN2CC1CC1` [N-(3-Cyclopropylmethyl-6,11-dimethyl-1,2,3,4,5,6-hexahydro-2,6-methano-benzo[d]azocin-8-yl)-N',N'-dimethyl-benzene-1,4-diamine], 75 nM. In the case of `C[C@H]1[C@H]2Cc3ccc(Nc4ccccc4)cc3[C@@]1(C)CCN2C[C@@H]1CCCO1` [[6,11-Dimethyl-3-(tetrahydro-furan-2-ylmethyl)-1,2,3,4,5,6-hexahydro-2,6-methano-benzo[d]azocin-8-yl]-phenyl-amine], the Ki worked out at 35 nM.
